50 compounds from US7557098B2, “1-aryl- or 1-alkylsulfonyl-heterocyclylbenzazoles as 5-hydroxytryptamine-6 ligands” (Wyeth, priority 2000, dated 2009) can be followed below.

The target of data set [1] is T1, human cloned 5-HT6 receptors (Homo sapiens, UniProt P50406).
T1 construct: expressed in transfected cells; host or cells: Hela cells
The data set is described as follows: 5-HT6 binding affinity, [3H]-LSD displacement on membranes of Hela cells expressing human cloned 5-HT6 receptors.

Where [2] appears, read: [3H]-LSD 3.0 nM, Hela cell membranes, 120 min at room temperature, read-out: 5-HT6 binding Ki.

pKi: −log10 of the molar value. Where a name gives a salt, the structure may show the parent alone. Read-outs that look alike come from different tables or passages of the source.

T1 sequence (P50406 whole entry): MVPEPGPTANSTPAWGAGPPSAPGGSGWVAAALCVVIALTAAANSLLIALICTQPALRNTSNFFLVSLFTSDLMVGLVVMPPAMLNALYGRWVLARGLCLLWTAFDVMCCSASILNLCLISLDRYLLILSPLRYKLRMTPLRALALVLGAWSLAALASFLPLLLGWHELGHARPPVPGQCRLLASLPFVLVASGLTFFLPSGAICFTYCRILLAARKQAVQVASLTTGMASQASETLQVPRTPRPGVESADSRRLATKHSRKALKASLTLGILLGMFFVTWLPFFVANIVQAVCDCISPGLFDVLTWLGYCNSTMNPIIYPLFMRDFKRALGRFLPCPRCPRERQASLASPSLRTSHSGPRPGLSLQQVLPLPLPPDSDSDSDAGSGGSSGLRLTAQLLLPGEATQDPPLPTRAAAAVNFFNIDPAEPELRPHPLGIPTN

One may read the pKi as −log10 of the Ki, conventionally taken in molar units. As to `O=S(=O)(c1ccccc1Br)n1ccc2c(N3CCNCC3)cccc21` [Example 2], the pKi in data set [1] was 8.70.

In the case of `O=S(=O)(c1c(Cl)nc2sccn12)n1ccc2c(N3CCNCC3)cccc21` [Example 3], the pKi in data set [1] was 9.00. Still for that read-out and setting: for `Nc1ccc(S(=O)(=O)n2ccc3c(N4CCNCC4)cccc32)cc1` [Example 5] the value was 9.00; for `O=S(=O)(c1ccccc1)n1ccc2c(N3CCN(C4=NCCN4)CC3)cccc21` [Example 14, 4-[4-(4,5-Dihydro-1H-imidazol-2-yl)-piperazin-1-yl]-1-(phenylsulfonyl)-1H-indole], 7.62.

For `Nc1ccc(S(=O)(=O)n2ccc3c(N4CCN(C5=NCCN5)CC4)cccc32)cc1` [Example 18], the pKi in data set [1] (setting [2]) is 8.22. The same measure, in the same setting: for `O=S(=O)(c1c(Cl)nc2sccn12)n1ccc2c(N3CCN(Cc4ccccc4)CC3)cccc21` [Example 27] the value was 7.25.

Regarding `CC(=O)N1CCN(c2cccc3c2ccn3S(=O)(=O)c2c(Cl)nc3sccn23)CC1` [Example 30], the pKi in data set [1] (setting [2]) is 6.66. For `COc1ccc(S(=O)(=O)n2ccc3c(N4CCN(Cc5cccc([N+](=O)[O-])c5)CC4)cccc32)cc1OC` [Example 33], the pKi in data set [1] (setting [2]) is 7.35. Still for that read-out and setting: the same measure for `Nc1ccc(S(=O)(=O)n2ccc3c(N4CCN(Cc5ccccc5)CC4)cccc32)cc1` [Example 35]: 7.82; for `CN1CCN(c2cccc3c2ccn3S(=O)(=O)c2ccc(N)cc2)CC1` [Example 36]: 8.52. Still for that read-out and setting: for `Nc1ccc(S(=O)(=O)n2ccc3c(N4CCN(Cc5ccc(Cl)s5)CC4)cccc32)cc1` [Example 37] the value was 7.23; for `Nc1ccc(S(=O)(=O)n2ccc3c(N4CCN(Cc5cccc([N+](=O)[O-])c5)CC4)cccc32)cc1` [Example 38], 8.30. Same read-out and setting: the same measure for `O=S(=O)(c1ccccc1)n1ccc2c(N3CCN(Cc4ccncc4)CC3)cccc21` [Example 40]: 8.40.

Regarding `O=S(=O)(c1ccccc1)n1ccc2c(N3CCN(Cc4cccnc4)CC3)cccc21` [Example 41], in data set [1] (setting [2]), the pKi is 8.15. The same measure, in the same setting: the same measure for `COc1cccc(CN2CCN(c3cccc4c3ccn4S(=O)(=O)c3ccccc3Br)CC2)c1` [Example 42]: 8.40. The same measure, in the same setting: the same measure for `O=S(=O)(c1ccccc1Br)n1ccc2c(N3CCN(Cc4ccncc4)CC3)cccc21` [Example 43]: 8.15; for `O=S(=O)(c1ccccc1Br)n1ccc2c(N3CCN(Cc4cccnc4)CC3)cccc21` [Example 44]: 9.00; for `O=S(=O)(c1c(Cl)nc2sccn12)n1ccc2c(N3CCN(Cc4ccncc4)CC3)cccc21` [Example 46]: 8.30. Same read-out and setting: the same measure for `O=S(=O)(c1c(Cl)nc2sccn12)n1ccc2c(N3CCN(Cc4cccnc4)CC3)cccc21` [Example 47]: 8.22. On to `COc1cccc(CN2CCN(c3cccc4c3ccn4S(=O)(=O)c3ccc(OC)c(OC)c3)CC2)c1` [Example 48], for which the pKi in data set [1] (setting [2]) was 7.85. On to `COc1ccc(S(=O)(=O)n2ccc3c(N4CCN(Cc5ccncc5)CC4)cccc32)cc1OC` [Example 49], for which the pKi in data set [1] (setting [2]) is 8.00.

In the case of `COc1ccc(S(=O)(=O)n2ccc3c(N4CCN(Cc5cccnc5)CC4)cccc32)cc1OC` [Example 50], the pKi in data set [1] (setting [2]) is 7.77.

In the case of `COc1cccc(CN2CCN(c3cccc4c3ccn4S(=O)(=O)c3ccc(N)cc3)CC2)c1` [Example 51], the pKi in data set [1] (setting [2]) is 8.15.

For `Nc1ccc(S(=O)(=O)n2ccc3c(N4CCN(Cc5ccncc5)CC4)cccc32)cc1` [Example 52], the pKi in data set [1] (setting [2]) was 7.60. Same read-out and setting: for `Nc1ccc(S(=O)(=O)n2ccc3c(N4CCN(Cc5cccnc5)CC4)cccc32)cc1` [Example 53] the value was 8.40; for `O=S(=O)(c1ccccc1)n1ncc2c(N3CCN(Cc4ccccc4)CC3)cccc21` [Example 57, 4-(4-Benzylpiperazin-1-yl)-1-(phenylsulfonyl)-1H-indazole hydrochloride], 7.85. As for `O=S(=O)(c1ccccc1)n1ncc2c(N3CCNCC3)cccc21` [Example 58, 1-(Phenylsulfonyl)-4-(1-piperazinyl)-1H-indazole hydrochloride], the pKi in data set [1] is 9.52.

Turning to `O=S(=O)(c1ccccc1)n1ncc2c(N3CCN(CCc4ccccc4)CC3)cccc21` [Example 59, 4-[4-(2-phenylethyl)piperazin-1-yl]-1-(phenylsulfonyl)-1H-indazole hydrochloride], the pKi in data set [1] (setting [2]) is 9.00.

The melting point is the temperature, or range, at which the solid turns liquid. The compound `O=S(=O)(c1ccccc1)n1ncc2c(N3CCN(CCOc4ccc(F)cc4)CC3)cccc21` [Example 60] returned a melting point of 184 to 186 °C. The pKi in data set [1] (setting [2]) is 6.51. In the case of `O=C(CCCN1CCN(c2cccc3c2cnn3S(=O)(=O)c2ccccc2)CC1)c1ccc(F)cc1` [Example 61], in data set [1] (setting [2]), the pKi is 8.52. Regarding `O=C(CN1CCN(c2cccc3c2cnn3S(=O)(=O)c2ccccc2)CC1)c1ccccc1` [Example 62], the melting point lay in the range of 202 to 205 °C. The pKi in data set [1] (setting [2]) was 7.92.

The compound `O=S(=O)(c1ccccc1)n1ncc2c(N3CCN(CCCc4ccccc4)CC3)cccc21` [Example 63] gave a melting point of 188 to 190 °C. For the same compound, in data set [1] (setting [2]), the pKi is 8.22. Taken in the same sequence, the figures for `CCCN1CCN(c2cccc3c2cnn3S(=O)(=O)c2ccccc2)CC1` [Example 64] were 258 to 260 °C and 8.70.

For the compound `O=S(=O)(C=Cc1ccccc1)n1ncc2c(N3CCN(Cc4ccccc4)CC3)cccc21` [Example 65], the melting point was in the range of 233 to 235 °C. The pKi in data set [1] (setting [2]) is 6.76.

With `O=S(=O)(c1ccc(F)cc1)n1ncc2c(N3CCN(Cc4ccccc4)CC3)cccc21` [Example 66], the melting point fell in the range of 240 to 241 °C. The pKi in data set [1] (setting [2]) is 7.08. In the same order, the values of `O=S(=O)(c1ccc(Cl)cc1)n1ncc2c(N3CCN(Cc4ccccc4)CC3)cccc21` [Example 67] are 238 to 239 °C and 7.06.

`COc1ccc(S(=O)(=O)n2ncc3c(N4CCN(Cc5ccccc5)CC4)cccc32)cc1` [Example 69] registered a melting point of 206 to 209 °C. The pKi in data set [1] (setting [2]) is 6.94.

On to `O=S(=O)(c1ccc(OC(F)(F)F)cc1)n1ncc2c(N3CCN(Cc4ccccc4)CC3)cccc21` [Example 70], for which the melting point was in the range of 229 to 231 °C. Also, in data set [1] (setting [2]), the pKi is 6.60. Taken in the same sequence, the figures for `O=S(=O)(c1cc(Cl)c(Cl)s1)n1ncc2c(N3CCN(Cc4ccccc4)CC3)cccc21` [Example 71] were 235 to 237 °C and 7.09. Taken in the same sequence, the figures for `Cc1ccc(S(=O)(=O)n2ncc3c(N4CCN(Cc5ccccc5)CC4)cccc32)cc1` [Example 72] were 215 to 217 °C and 7.25.

For `Nc1ccc(S(=O)(=O)n2ccc3cc(N4CCNCC4)ccc32)cc1` [Example 73, 1-(4-Aminophenylsulfonyl)-5-piperazin-1-yl-1H-indole hydrochloride], the pKi in data set [1] (setting [2]) was 7.47. Same read-out and setting: the same measure for `O=S(=O)(c1ccc(Br)cc1)n1ncc2cc(N3CCNCC3)ccc21` [Example 79]: 7.72. Regarding `O=S(=O)(c1ccc(Br)s1)n1ncc2cc(N3CCNCC3)ccc21` [Example 81], the pKi in data set [1] is 7.36. In the case of `CCCCOc1ccc(S(=O)(=O)n2ccc3cc(N4CCNCC4)ccc32)cc1` [Example 83], the pKi in data set [1] (setting [2]) is 7.42. Same read-out and setting: for `Cc1nn(C)c(Cl)c1S(=O)(=O)n1ccc2cc(N3CCNCC3)ccc21` [Example 86] the value was 7.36; for `Cc1c(S(=O)(=O)n2ncc3ccc(N4CCNCC4)cc32)sc2ccc(Cl)cc12` [Example 89], 7.62. Same read-out and setting: the same measure for `O=S(=O)(c1cc(Cl)c(Cl)s1)n1ncc2cc(N3CCNCC3)ccc21` [Example 90]: 7.52; for `O=S(=O)(c1cc(Cl)c(Cl)s1)n1ncc2ccc(N3CCNCC3)cc21` [Example 91]: 8.22; for `O=S(=O)(c1ccc2ccccc2c1)n1ncc2ccc(N3CCNCC3)cc21` [Example 96]: 7.43.

As for `O=S(=O)(c1ccc(I)cc1)n1ncc2cc(N3CCNCC3)ccc21` [Example 101], in data set [1] (setting [2]), the negative logarithm of the Ki (pKi) was 7.74.
